The values that follow come from PubChem BioAssay AID623910 (NMMLSC, 2012).

Molecules are shown by their SMILES.

The subject of the data set is mouse and human plasma, RED dialysis, LC/MS/MS, 4 h. Description: fraction of compound bound to plasma proteins – biochemical, mouse and human plasma, ADME assay for GPR30 and estrogen receptor ligands, late-stage follow-up (AID 623910).

Turning to `CC(=O)c1ccc2c(c1)[C@@H]1C=CC[C@@H]1[C@H](c1cc3c(cc1Br)OCO3)N2`, the plasma protein binding reads like this: (at 1 µM) 99.8%; (human plasma binding, at 10 µM) 99.8%; (mouse plasma binding, at 1 µM) 99.8%; (mouse plasma binding, at 10 µM) 99.5%.
